Assay: HLB of surfactant
Type: physicochemical

Substance	average HLB
sucrose distearate	6.3
polyglyceryl-10 oleate	12.5

From patent US20250073146A1, “MIXED SURFACTANT FOR PREPARING TRANSPARENT MICROEMULSION AND FINE NANOEMULSION, AND COSMETIC COMPOSITION PREPARED USING THE SAME” (BIOBEAUTECH Co., Ltd., priority 2023, published 2025)
